Source: PMC7432475, “β-Carbolines in Experiments on Laboratory Animals” (International Journal of Molecular Sciences, 2020)
Values after ≈ are worked out from the molar mass of the structure shown. Where two headings read alike, the source gives them in different places.

Assays:
male Sprague Dawley rats [1] = type: in vivo; conditions: stage 1; rats that received the lowest amounts of H and NH
male Sprague Dawley rats [2] = experiment: Battery of behavioral tests, stage 1; type: in vivo; conditions: individual chemical standards added to the diet
Method: The experiment was conducted in the animal housing facility at the Institute of Human Nutrition and Dietetics, Poznań University of Life Sciences, under conditions of natural light and with the temperature maintained during the experiment at 19–22 °C, and with a relative humidity of 55–60%. Seventeen-month-old male Sprague Dawley rats originating from a Charles River Laboratories farm were used in the experiment. The age of the rats corresponded to 51 years of human life. For the first ten days of the experiment (the adaptation period), the rats were fed ad libitum with a standard laboratory diet and water. The experiment was conducted in two stages. […] The food consumption of the individual rats was monitored daily by measuring the difference between the amount of diet supplied each day and the amount of diet remaining. Feces were collected for ten days in the seventh week of the experiment, and water content, protein, fat, dietary fiber, and ash were determined using standard analytical methods. Body mass was measured every seven days using an electronic balance. […]
A classic labyrinth (110 × 65 cm) was used, with corridors about […], located on the table raised 50 cm from the ground. […] The time needed to complete the route between the two points of departure and arrival was measured. […]

MRC-5 cells [3] = experiment: Real-time cell proliferation analysis by xCELLigence system, MRC-5; type: cell-based, human; conditions: for IC50: Homo sapiens, MRC5; for cell proliferation rate compared to the control: 24 h after administration, 1–25 µM; for cytotoxic effect on the MRC-5 cell line: low concentration range (1–25 µM)
Method: (§1) Normal human lung fibroblasts (MRC-5) were purchased from ECACC, and human skin fibroblasts isolated from a person with Parkinson’s disease (AG20445) were purchased from the Coriell Institute. The cells were cultured in Eagle’s Minimum Essential Medium (EMEM, Corning) supplemented with antibiotics (Penicillin-Streptomycin Solution (ATCC) and 10% or 15% FBS (Sigma-Aldrich), respectively. Both cell lines were cultured at 37 °C, with the addition of 5% CO2 to the atmosphere.
(§2) Cell proliferation analysis was performed using an xCELLigence system (Roche). The cells were seeded in sixteen-well E-plates (Roche) at a density of 7.5 × 10^3 per well. After 24 h, the cells were treated with H, NH, and both in final concentrations of 1, 5, 10, 25, 50, and 100 μM. The control cells were cultured in the supplemented medium only. The real-time proliferation of the cells was estimated based on impedance measurement, expressed as a Cell Index (CI) value. The CI was monitored at 30 min intervals from the time of plating for six days.

AG20445 (PD cells) = experiment: Real-time cell proliferation analysis by xCELLigence system, AG20445; type: cell-based, human; conditions: 24 h after treatment, range of 1–50 µM
Method: as §1, §2

MRC-5 cells [4] = experiment: Apoptosis/necrosis assay (Casp 3/7-FITC/7-AAD flow cytometry), MRC-5; type: cell-based, human; conditions: 24 h, 5, 10, and 25 µM (Figure 2c)
Method: as §1
(§3) The apoptosis/necrosis assay was performed by double staining with CellEvent Caspase 3/7-FITC (Thermo Fisher Scientific) and 7-aminoactinomycin D (BD Pharmigen) fluorescent dyes. Briefly, the cells (4 × 10^5) were seeded onto six-well plates and incubated until 70–80% confluency. On the next day, the cells were treated with β-carbolines in a final concentration of 5, 10, and 25 µM. Afterward, the cells were detached with trypsin (Thermo Fisher Scientific), washed twice with Dulbecco’s Phosphate Buffered Saline (Thermo Fisher Scientific), and stained with fluorescent dyes for 30 min at 37 °C in the dark, in line with the manufacturer’s protocol. Cells were analyzed immediately with 488 nm excitation using an Accuri C6 flow cytometer (Becton Dickinson).

AG20445 cells = experiment: Apoptosis/necrosis assay (Casp 3/7-FITC/7-AAD flow cytometry), AG20445; type: cell-based, human; conditions: 24 h, 5, 10, and 25 µM (Figure S2b)
Method: as §1, §3

[5] = for share of the carboline taken in that was found in the blood: from average body mass, feed consumption and concentration in the feed; for increase of the carboline level in plasma versus control diet / Harman (ng/mL) in animal blood: stage I; for increase of the carboline level in plasma versus control diet: at the greatest addition to the diet; for Harman (ng/mL) in animal blood: fourteen weeks, n = 6
rats [6] = system: rats; parameters: method as in PMID 23107644; conditions: the two higher doses (5.0 mg/kg and 7.5 mg/kg); cited from earlier work
mice = system: mice; parameters: method as in PMID 16183262; conditions: H 5–15 mg/kg i.p., NH 2.5–10 mg/kg i.p.; cited from earlier work
monoamine oxidase = system: monoamine oxidase; parameters: method as in PMID 8957221; conditions: cited from earlier work
KB = system: KB; parameters: method as in PMID 10612592; conditions: cited from earlier work
A549 = system: A549; parameters: method as in PMID 10612592; conditions: cited from earlier work
CAKI-1 = system: CAKI-1; parameters: method as in PMID 10612592; conditions: cited from earlier work
MCF-7 = system: MCF-7; parameters: method as in PMID 10612592; conditions: cited from earlier work
IA9 = system: IA9; parameters: method as in PMID 10612592; conditions: cited from earlier work
SK-MEL-2 = system: SK-MEL-2; parameters: method as in PMID 10612592; conditions: cited from earlier work
U-87-MG = system: U-87-MG; parameters: method as in PMID 10612592; conditions: cited from earlier work
HEL = system: HEL; parameters: method as in PMID 10612592; conditions: cited from earlier work
[7] = system: yeast and mammalian cells; parameters: method as in PMID 17545209; conditions: cited from earlier work
[8] = system: primary mesencephalic dopaminergic cell culture derived from embryonic mice; conditions: cited from earlier work
caspase-3 = system: caspase-3; parameters: method as in PMID 17913302; conditions: primary mesencephalic dopaminergic cell culture from embryonic mice; cited from earlier work
[9] = system: FAS, Gadd45a, Hspb1; Cxcl9, Irf1, Fasl, Icam1, Tnf, Vcam1; parameters: method as in PMID 17913302; conditions: cited from earlier work
rats [10] = system: rats; parameters: method as in PMID 22380576; conditions: compared with controls; cited from earlier work
α-synuclein = system: α-synuclein; parameters: method as in PMID 20374418; conditions: primary dopaminergic cell cultures; cited from earlier work
[11] = system: Artn, Bdnf, Egln1, Tgfb2, and Ncam1; parameters: method as in PMID 32285253; conditions: cited from earlier work
[12] = in 100g, stage I
[13] = corresponds to ~50 µM, read-out: concentration giving 50% decrease in MRC-5 cell viability, converted
[14] = xCELLigence, read-out: concentration giving 50% decrease in MRC-5 cell viability

**Q.** For `Cc1nccc2c1[nH]c1ccccc12` [H, harman], which “Porsolt test: mobility” value (male Sprague Dawley rats [1]) is on record?
**A.** more mobile than the control animals

**Q.** What about the “effect on the animals' behavior” value (male Sprague Dawley rats [2]) of the same compound?
**A.** did not produce a very marked effect

**Q.** What about the IC50 (MRC-5 cells [3]; [13]) of the same compound?
**A.** 9.11 µg/mL

**Q.** What about the IC50 (MRC-5 cells [3]; [14]) of the same compound?
**A.** ~50 µM

**Q.** What about the “cell proliferation rate compared to the control” value (MRC-5 cells [3]; MRC-5) of the same compound?
**A.** significant increase in the cell proliferation rate

**Q.** What about the “cytotoxic effect on the MRC-5 cell line” value (MRC-5 cells [3]) of the same compound?
**A.** neither H nor NH showed any cytotoxic effect

**Q.** And the “CI values (proliferation)” value (AG20445 (PD cells))?
**A.** significant increase in CI values

**Q.** And the induction of apoptosis (MRC-5 cells [4])?
**A.** do not induce apoptosis

**Q.** What about the induction of apoptosis (AG20445 cells) of the same compound?
**A.** do not induce apoptosis

**Q.** What about the “share of the carboline taken in that was found in the blood” value [5] of the same compound?
**A.** about 0.15%

**Q.** And the “increase of the carboline level in plasma versus control diet” value [5]?
**A.** increased by a factor of about four

**Q.** And the “Harman (ng/mL) in animal blood” value ([5]; group H1 = 10 µg H/kg of exp. diet)?
**A.** 0.038 ng/mL

**Q.** What about the “Harman (ng/mL) in animal blood” value ([5]; group H2 = 15 µg H/kg of exp. diet) of the same compound?
**A.** 0.052 ng/mL

**Q.** What about the “Harman (ng/mL) in animal blood” value ([5]; group H3 = 20 µg H/kg of exp. diet) of the same compound?
**A.** 0.084 ng/mL

**Q.** What about the “errors in working memory” value (rats [6]) of the same compound?
**A.** significantly fewer errors in working memory

**Q.** And the “antidepressant action on mice” value (mice)?
**A.** positive effects

**Q.** And the monoamine oxidase inhibition (monoamine oxidase)?
**A.** potent monoamine oxidase inhibitor

**Q.** What about the ED50 (KB) of the same compound?
**A.** 8.9 µg/mL (≈ 48.8 µM)

**Q.** What about the ED50 (A549) of the same compound?
**A.** 9.3 µg/mL (≈ 51 µM)

**Q.** What about the ED50 (CAKI-1) of the same compound?
**A.** 8.0 µg/mL (≈ 43.9 µM)

**Q.** What about the ED50 (MCF-7) of the same compound?
**A.** 19.0 µg/mL (≈ 104 µM)

**Q.** And the ED50 (IA9)?
**A.** 6.1 µg/mL (≈ 33.5 µM)

**Q.** And the ED50 (SK-MEL-2)?
**A.** > 20 µg/mL

**Q.** And the ED50 (U-87-MG)?
**A.** 19.0 µg/mL (≈ 104 µM)

**Q.** And the ED50 (HEL)?
**A.** 9.8 µg/mL (≈ 53.8 µM)

**Q.** What about the “protective effect against H2O2 and paraquat oxidative agents” value [7] of the same compound?
**A.** significant protective effect

**Q.** Which results are given for `Cn1c2ccccc2c2ccncc21` [9-me-BC, 9-methyl-β-carboline]?
**A.** number of dopaminergic neurons ([8]; concentration-dependent manner): capable of increasing the number of dopaminergic neurons; number of necrotic cells ([8]; primary mesencephalic dopaminergic cell culture from embryonic mice): reduced the number of necrotic cells; caspase-3 activity (caspase-3): decrease of caspase-3 activity; expression of inflammation-related genes like Cxcl9, Irf1, Fasl, Icam1, Tnf, and Vcam1 [9]: reduced; expression of proteins in apoptosis-relevant pathways like FAS, Gadd45a, and Hspb1 [9]: downregulated; acquisition in a hippocampus-dependent task (rats [10]): significantly accelerated acquisition; content of α-synuclein (α-synuclein): lowered; gene expression of neurotrophic factors like Artn, Bdnf, Egln1, Tgfb2, and Ncam1 [11]: stimulated

**Q.** For `c1ccc2c(c1)[nH]c1cnccc12` [NH, norharman], which “Porsolt test: mobility” value (male Sprague Dawley rats [1]) is on record?
**A.** more mobile than the control animals

**Q.** And the “effect on the animals' behavior” value (male Sprague Dawley rats [2])?
**A.** did not produce a very marked effect

**Q.** What about the IC50 (MRC-5 cells [3]; [13]) of the same compound?
**A.** 8.41 µg/mL

**Q.** What about the IC50 (MRC-5 cells [3]; [14]) of the same compound?
**A.** ~50 µM

**Q.** And the “cell proliferation rate compared to the control” value (MRC-5 cells [3]; MRC-5)?
**A.** significant increase in the cell proliferation rate

**Q.** What about the “proliferation rate (ranking)” value (MRC-5 cells [3]; MRC-5, final concentrations of 1, 5, and 10 μM) of the same compound?
**A.** greatest proliferation rate

**Q.** What about the “cytotoxic effect on the MRC-5 cell line” value (MRC-5 cells [3]) of the same compound?
**A.** neither H nor NH showed any cytotoxic effect

**Q.** And the “CI values (proliferation)” value (AG20445 (PD cells))?
**A.** significant increase in CI values

**Q.** And the induction of apoptosis (MRC-5 cells [4])?
**A.** do not induce apoptosis

**Q.** What about the induction of apoptosis (AG20445 cells) of the same compound?
**A.** do not induce apoptosis

**Q.** And the “share of the carboline taken in that was found in the blood” value [5]?
**A.** about 0.5%

**Q.** And the “increase of the carboline level in plasma versus control diet” value [5]?
**A.** increased two-fold

**Q.** What about the “IDF [g] (insoluble dietary fiber) in feces” value (“IDF [g]” below) ([12]; group NH1 (8 µg NH/kg diet)) of the same compound?
**A.** 55,36 g

**Q.** What about the “SDF [g] (soluble dietary fiber) in feces” value ([12]; group NH1 (8 µg NH/kg diet)) of the same compound?
**A.** 0,04 g

**Q.** What about the “IDF [g]” value ([12]; group NH2 (12 µg NH/kg diet)) of the same compound?
**A.** 54,46 g

**Q.** What about the “SDF [g] (soluble dietary fiber) in feces” value ([12]; group NH2 (12 µg NH/kg diet)) of the same compound?
**A.** 0,06 g

**Q.** What about the “IDF [g]” value ([12]; group NH3 (16 µg NH/kg diet)) of the same compound?
**A.** 53,97 g

**Q.** And the “SDF [g] (soluble dietary fiber) in feces” value ([12]; group NH3 (16 µg NH/kg diet))?
**A.** 0,07 g

**Q.** What about the “antidepressant action on mice” value (mice) of the same compound?
**A.** positive effects

**Q.** Which results are given for `Cn1c2ccccc2c2cc[n+](C)cc21` [2,9-dimethyl-BC]?
**A.** ATP content [8]: decreased; free radical production [8]: increased; mitochondrial membrane potential [8]: decreased; respiratory activity [8]: decreased; toxic effects on dopaminergic neurons and other cell constituents ([8]; primary dopaminergic culture): highly toxic effects
